Reference: ChEMBL document CHEMBL1152108, “Dual metalloprotease inhibitors. II. Effect of substitution and stereochemistry on benzazepinone based mercaptoacetyls” (Bioorg Med Chem Lett, 1994)

Key:
[1] = biological target: Angiotensin-converting enzyme (Homo sapiens, UniProt P12821); test: Inhibition of Angiotensin I converting enzyme; conditions: read-out: I50
Neprilysin = Neprilysin (Homo sapiens, UniProt P08473); test: Inhibition of Neutral Endopeptidase (NEP); conditions: read-out: I50
Rattus norvegicus [2] = test: Compound was tested in vivo for inhibition of Angiotensin I(AI) induced pressor response in normotensive rat after iv administration; type: functional
Rattus norvegicus [3] = test: Maximal percentage inhibition of Angiotensin I(AI) induced pressor response in normotensive rat at 0.15 (umol/kg) (iv); type: functional

Sequence of Neprilysin (P08473 whole entry): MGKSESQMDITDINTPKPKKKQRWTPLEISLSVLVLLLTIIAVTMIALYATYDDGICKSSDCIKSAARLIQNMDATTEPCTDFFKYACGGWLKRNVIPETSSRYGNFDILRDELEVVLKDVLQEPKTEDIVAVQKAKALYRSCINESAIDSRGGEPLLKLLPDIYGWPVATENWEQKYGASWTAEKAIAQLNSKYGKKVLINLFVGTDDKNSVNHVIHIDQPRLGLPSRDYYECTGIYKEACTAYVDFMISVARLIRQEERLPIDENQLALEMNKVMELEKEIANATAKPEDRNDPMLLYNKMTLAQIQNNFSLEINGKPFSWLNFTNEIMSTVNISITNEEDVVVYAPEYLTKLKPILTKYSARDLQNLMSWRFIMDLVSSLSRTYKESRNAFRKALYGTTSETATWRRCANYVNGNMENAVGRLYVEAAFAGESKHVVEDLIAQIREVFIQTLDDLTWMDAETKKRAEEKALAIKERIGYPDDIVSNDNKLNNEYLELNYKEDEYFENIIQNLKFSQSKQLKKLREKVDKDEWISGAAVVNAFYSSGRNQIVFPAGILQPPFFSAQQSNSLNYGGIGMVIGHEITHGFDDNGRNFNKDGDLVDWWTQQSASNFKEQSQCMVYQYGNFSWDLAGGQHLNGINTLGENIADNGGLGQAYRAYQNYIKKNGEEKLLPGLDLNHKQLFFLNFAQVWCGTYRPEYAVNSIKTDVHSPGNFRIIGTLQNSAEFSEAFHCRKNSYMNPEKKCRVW
Sequence of Angiotensin-converting enzyme (P12821 whole entry): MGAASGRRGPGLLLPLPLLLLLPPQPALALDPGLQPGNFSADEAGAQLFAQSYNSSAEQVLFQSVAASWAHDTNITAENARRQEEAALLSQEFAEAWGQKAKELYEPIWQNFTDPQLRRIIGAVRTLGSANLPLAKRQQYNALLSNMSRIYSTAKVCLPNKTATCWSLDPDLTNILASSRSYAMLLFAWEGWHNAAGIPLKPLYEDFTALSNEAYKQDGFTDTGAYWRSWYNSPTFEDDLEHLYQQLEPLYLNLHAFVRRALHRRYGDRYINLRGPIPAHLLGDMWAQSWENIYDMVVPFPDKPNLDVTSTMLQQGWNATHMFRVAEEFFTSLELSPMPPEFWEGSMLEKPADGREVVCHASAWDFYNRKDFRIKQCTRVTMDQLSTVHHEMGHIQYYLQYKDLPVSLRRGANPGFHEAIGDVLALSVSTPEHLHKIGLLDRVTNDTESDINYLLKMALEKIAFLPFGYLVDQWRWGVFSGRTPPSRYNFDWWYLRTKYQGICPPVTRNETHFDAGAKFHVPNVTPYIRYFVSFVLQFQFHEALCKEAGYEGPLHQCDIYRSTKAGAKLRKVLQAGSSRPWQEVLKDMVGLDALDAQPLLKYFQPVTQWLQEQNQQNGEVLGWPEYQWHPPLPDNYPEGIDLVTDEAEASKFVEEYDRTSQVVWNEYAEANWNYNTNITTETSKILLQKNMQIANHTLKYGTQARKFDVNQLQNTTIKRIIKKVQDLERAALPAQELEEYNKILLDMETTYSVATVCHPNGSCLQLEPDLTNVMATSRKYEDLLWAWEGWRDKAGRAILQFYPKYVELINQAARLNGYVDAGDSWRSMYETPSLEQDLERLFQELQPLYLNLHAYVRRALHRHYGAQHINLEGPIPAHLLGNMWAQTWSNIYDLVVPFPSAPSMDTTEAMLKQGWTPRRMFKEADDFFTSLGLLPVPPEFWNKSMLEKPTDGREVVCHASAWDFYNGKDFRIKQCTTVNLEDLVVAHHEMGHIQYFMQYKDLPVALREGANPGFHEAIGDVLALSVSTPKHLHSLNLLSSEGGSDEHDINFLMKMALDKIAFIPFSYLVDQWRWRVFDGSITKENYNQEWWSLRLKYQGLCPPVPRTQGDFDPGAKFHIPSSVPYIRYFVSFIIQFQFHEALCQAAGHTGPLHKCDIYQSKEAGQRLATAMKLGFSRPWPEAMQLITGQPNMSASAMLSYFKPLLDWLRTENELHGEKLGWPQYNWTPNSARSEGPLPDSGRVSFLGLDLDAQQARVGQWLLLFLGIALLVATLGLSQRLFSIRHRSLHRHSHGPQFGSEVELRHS

IC50 [1]	IC50 (Neprilysin)	SMILES	ED50 (Rattus norvegicus [2])	Inhibition (Rattus norvegicus [3])
284 nM	14 nM	O=C(O)CN1C(=O)[C@@H](NC(=O)[C@H](S)Cc2ccccc2)CCc2ccccc21		
6.3 nM	7 nM	CC(C)C[C@H](S)C(=O)N[C@H]1CCc2ccccc2N(CC(=O)O)C1=O	0.23 µmol/kg	
25 nM	1120 nM	O=C(O)CN1C(=O)C(NC(=O)[C@@H](S)Cc2ccccc2)CCCc2ccccc21 (stereo partly specified)		
33 nM	175 nM	O=C(O)CN1Cc2ccccc2C[C@H](NC(=O)[C@@H](S)Cc2ccccc2)C1=O		
24 nM	1850 nM	C[C@H](S)C(=O)N[C@H]1CCc2ccccc2N(CC(=O)O)C1=O		
5.4 nM	36 nM	CCCC[C@H](S)C(=O)N[C@H]1CCc2ccccc2N(CC(=O)O)C1=O	0.06 µmol/kg	
14 nM	137 nM	C[C@H](NC(=O)[C@@H](S)Cc1ccccc1)C(=O)N(CC(=O)O)c1ccccc1	0.15 µmol/kg	42%
	6 nM	O=C(O)CN1C(=O)[C@@H](NC(=O)[C@@H](S)Cc2ccccc2)CCc2ccccc21	0.02 µmol/kg	
22 nM	82 nM	O=C(O)CN1CCCC[C@H](NC(=O)[C@@H](S)Cc2ccccc2)C1=O	0.83 µmol/kg	
306 nM	560 nM	O=C(O)CN1C(=O)[C@H](NC(=O)[C@@H](S)Cc2ccccc2)CCc2ccccc21		
22 nM	4260 nM	O=C(O)CN1C(=O)[C@@H](NC(=O)[C@@H](S)CC2CCCCC2)CCc2ccccc21		
63 nM	2000 nM	CC(S)(Cc1ccccc1)C(=O)N[C@H]1CCc2ccccc2N(CC(=O)O)C1=O (stereo in doubt; form 2)		
183 nM	865 nM	CC(S)(Cc1ccccc1)C(=O)N[C@H]1CCc2ccccc2N(CC(=O)O)C1=O (stereo in doubt; form 1)		
